Laboratory results taken from patent publication US20060287378A1, “Novel pyrroles and imidazoles” (priority 2003, published 2006).
Like-named read-outs stand apart in the source and are kept apart here.

Legend:
[1] = target: T1, HMGCoA (3-Hydroxy-3-methylglutaryl CoA) Reductase (Rattus norvegicus, UniProt P51639); assay: HMGCoA reductase assay with rat liver microsomes (14C-HMGCoA); type: biochemical; settings: in vitro assay, 45 min at 37° C.
T1 construct: Male Charles River Sprague-Dawley rats were fed with 2.5% cholestyramine in rat chow diets for 5 days before sacrificing; from tissue; host or cells: liver microsomes of male Sprague-Dawley rats fed cholestyramine
T1 sequence (P51639 1-887): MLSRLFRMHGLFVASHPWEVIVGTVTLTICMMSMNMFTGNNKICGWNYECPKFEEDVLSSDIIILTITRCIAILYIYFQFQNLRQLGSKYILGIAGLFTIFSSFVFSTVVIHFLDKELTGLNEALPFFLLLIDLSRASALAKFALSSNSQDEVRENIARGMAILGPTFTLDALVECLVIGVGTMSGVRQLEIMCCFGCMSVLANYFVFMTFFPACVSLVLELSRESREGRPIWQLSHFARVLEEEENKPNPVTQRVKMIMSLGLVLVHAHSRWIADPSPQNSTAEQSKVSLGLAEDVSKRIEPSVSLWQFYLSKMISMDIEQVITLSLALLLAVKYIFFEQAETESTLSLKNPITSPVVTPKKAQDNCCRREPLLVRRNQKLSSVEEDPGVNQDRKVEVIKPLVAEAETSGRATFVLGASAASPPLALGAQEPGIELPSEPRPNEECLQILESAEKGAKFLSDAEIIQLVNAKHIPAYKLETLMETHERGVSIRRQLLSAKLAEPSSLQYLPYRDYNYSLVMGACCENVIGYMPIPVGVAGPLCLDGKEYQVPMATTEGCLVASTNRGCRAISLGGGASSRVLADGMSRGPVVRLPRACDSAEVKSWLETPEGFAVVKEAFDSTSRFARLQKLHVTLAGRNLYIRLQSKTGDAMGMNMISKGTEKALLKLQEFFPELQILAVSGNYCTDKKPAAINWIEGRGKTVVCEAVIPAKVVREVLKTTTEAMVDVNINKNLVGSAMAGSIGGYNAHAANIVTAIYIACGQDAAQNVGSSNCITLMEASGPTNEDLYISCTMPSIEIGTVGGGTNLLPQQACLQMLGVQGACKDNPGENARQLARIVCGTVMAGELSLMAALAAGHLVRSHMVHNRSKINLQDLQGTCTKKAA
Procedure: Rat Liver Microsomal Isolation Procedure:
Male Charles River Sprague-Dawley rats were fed with 2.5% cholestyramine in rat chow diets for 5 days before sacrificing. Livers were minced and homogenized in a sucrose homogenizing solution in an ice bath 10 times. Homogenates were diluted into a final volume of 200 mL, and centrifuged 15 min. with a Sorvall Centrifuge at 5° C., 10,000 rpm (12,000×G). The upper fat layer was removed and the supernatant decanted into fresh tubes. This step was repeated one more time before transferring the supernatant into ultracentrifuge tubes and centrifuged at 36,000 rpm (105,000×G) for an hour at 5° C. The resulting supernatant was discarded and the pellet was added to total of 15 mL 0.2 M KH2PO4. Pellets were homogenized gently by hand about 10 times. Samples were pooled and diluted into total of 60 mL buffer. The protein concentration of the homogenate was determined by the […] using a BCA (Bicinchoninic acid), kit from Pierce Chemical Company. 1 mL aliquots of microsomes were kept frozen in liquid nitrogen.
HMGCoA (3-Hydroxy-3-methylglutaryl CoA) Reductase Assay:
[3-^14C]-HMGCoA (57.0 mCi/mmol) was purchased from Amersham Biosciences, UK. HMGCoA, mevalonolactone, P-NADPH (P-Nicotinamide Adenine Dinucleotide Phosphate, Reduced form) were purchased from Sigma Chemical Co. AG 1-8×resin was purchased from Bio-Rad Laboratory. • 1. One μL of dimethyl sulfoxide (DMSO) or 1 μL of DMSO containing a test compound at a concentration sufficient to give a final assay concentration of between 0.1 nM to 1 mM was placed into each well of a Corning 96 well plate. A Volume of 34 µL of buffer (100 mM NaH2PO4, 10 mM Imidazole and 10 mM EDTA), (Ethylenediaminetetra acetic acid) containing with 50 µg/mL rat liver microsomes was added into each well. After incubation for 30 min. on ice, 15 µL of ^14C-HMGCoA (0.024 μCi) with 15 mM NADPH, 25 mM DTT, (Dithiothreitol) was added and incubated at 37° C. for an additional 45 min.
The reaction was terminated by the addition of 10 μL of HCl followed by 5 μL of mevalonolactone. Plates were incubated at room temperature overnight to allow lactonization of mevalonate to mevalonolactone. The incubated samples were applied to columns containing 300 μL of AG1-X8 anion exchange resin in a Corning filter plate.
The eluates were collected into Corning 96 well capture plates. Scintillation cocktail (Ultima-Flo-M) was added into each well and plates counted on a Trilux Microbeta Counter. The IC50 values were calculated with GraphPad software (Prism). Procedure: • 2. Add 1 μL DMSO or compounds into the wells according to the protocol • 3. Add 35 μL incubation buffer with the rat microsomes into each well. Incubate 30 min. at 4° C. • 4. Add 15 μL ^14C-HMGCoA. Incubate 45 min. at 37° C. • 5. Add 10 μL HCl stop reagent • 6. Add 5 μL mevelonolactone. Incubate overnight at room temperature • 7. Apply the containing into the AG 1-X8 anion exchange resin in Corning filter plate • 8. Collect the eluate into Corning capture plate • 9. Add scintillation cocktail Ultima-Flo-M • 10. Count on a Trilux Microbeta Counter μ • 11. Calculate IC50 values

[2] = system: Sterol Biosynthesis in L6 Rat Myoblast; assay: Sterol biosynthesis in L6 rat myoblast (14C acetic acid into cholesterol); type: cell-based; settings: 3 hours pre-incubation, 3 hours 14C acetic acid labeling
Procedure: C.) Protocol for Sterol Biosynthesis in L6 Rat Myoblast:
(§1) Cell culture, compounds treatment and cell labeling:
L6 rat myoblast purchased from ATCC (CRL-1458) were grown in T-150 vented culture flasks and seeded on 12-well culture plates at a density of 60,000 cells per well. The cells were grown in DMEM, (Dulbecco's Modified Eagle Medium) (Gibco, #10567-014) containing 10% heat inactivated FBS (Fetal Bovine Serum) (Gibco # 10082-139) for 72 hours until reaching confluence. The cells were pre-incubated in media with compound and 0.2% DMSO (dimethyl sulfoxide) for 3 hours and then labeled by incubating in medium containing compound, 0.2% DMSO and 1 □]Ci/per mL of ^14C acetic acid for an additional 3 hours. After labeling, the cells were washed once with 1×PBS (Gibco #14190-144) then lysed overnight at 4° C. in buffer containing 10% KOH and 78%(vol.) ethanol. Cholesterol extraction and data analysis:
Lipid ester bonds were hydrolyzed by saponification of the lysates at 60° C. for 2 hours. Sterols (including cholesterol) were extracted from saponified lysates by combining with 3 volumes of hexane and mixing by pipette 6 times. The upper organic phase solution was collected and combined with an equal volume of 1 N KOH in 50% methanol and mixed by pipette 6 times. The upper organic phase was collected in a scintilant-coated plate (Wallac #1450-501) and hexanes removed by evaporation at room temperature for 3 hours. The amount of ^14C cholesterol was quantified by scintillation counting in a Trilux 1450 plate reader (Wallac). The IC50 values were calculated from % inhibitions relative to negative controls vs. compound concentration on Microsoft excel 2000 data analysis wizard using a sigmoid inhibition curve model with formula: y=Bmax (1−(x^n/K^n+x^n))+y2
Where K is the IC50 for the inhibition curve, X is inhibitor concentration, Y is the response being inhibited and Bmax+Y2 is the limiting response as X approaches zero.

[3] = system: Sterol Biosynthesis in Rat Hepatocytes; assay: Sterol biosynthesis in rat hepatocytes (14C acetic acid into cholesterol); type: cell-based; settings: Hepatocyte
Procedure: Protocol for Sterol Biosynthesis in Rat Hepatocytes:
as §1
Frozen rat hepatocytes purchased from XenoTech (cat# N400572) were seeded on 6-well collagen I coated plates at a density of 10^5 cells/per well. The cells were grown in DMEM, (Dulbecco's Modified Eagle Medium) (Gibco, #11054-020) containing 10% FBS (Fetal Bovine Serum) and 10 mM HEPES, (N-2-hydroxyethyl-piperazine-N^1-2-ethane sulfonic acid) (Gibco # 15630-080) for 24 hrs. The cells were pre-incubated with compounds for 4 hrs and then labeled by incubating in medium containing 1 uCVper mL of ^14C acetic acid for an additional 4 hrs. After labeling, the cells were washed twice with 5 mM MOPS, (3-[N-morpholino] propane sulfonic acid) solution containing 150 mM NaCl and 1 mM EDTA and collected in the lysis buffer containing 10% KOH and 80% (vol.) ethanol. Cholesterol extraction and data analysis:
In order to separate labeled cholesterol from labeled non-cholesterol lipids, the cells lysates were subject to saponification at 60° C. for 2 hrs. The lysates were then combined with 0.5 volume of H2O and 2 volumes of hexane, followed by 30 minutes of vigorous shaking. After the separation of two phases, the upper-phase solution was collected and combined with 5 volumes of scintillation cocktail. The amount of ^14C cholesterol was quantified by liquid scintillation counting. The IC50 values were calculated with GraphPad software (Prism 3.03).

## CC(C)c1c(S(=O)(=O)Nc2ccccc2)c(-c2ccc(F)cc2)c(-c2ccc(F)cc2)n1CC[C@@H](O)C[C@@H](O)CC(=O)[O-].[Na+] [Example 1P, (3R,5R)-7-[2,3-bis-(4-fluoro-phenyl)-5-isopropyl-4-phenylsulfamoyl-pyrrol-1-yl]-3,5-dihydroxy-heptanoic acid monosodium salt]
other
  melting point: 130 to 134 °C (dec.)

## CC(C)c1c(C(=O)N2CCN(c3ccc(F)cc3F)CC2)nc(-c2ccc(F)cc2)n1CC[C@@H](O)C[C@@H](O)CC(=O)O [Example 69]
[1]
  IC50: 2.2 nM
[2]
  IC50: 159 nM
[3]; Rattus norvegicus
  IC50: 0.18 nM

## CN(Cc1ccccc1)C(=O)c1nc(-c2ccc(F)cc2)n(CC[C@@H](O)C[C@@H](O)CC(=O)O)c1C1CC1 [Example 112]
[1]
  IC50: 8.39 nM
[2]
  IC50: 73500 nM
[3]; Rattus norvegicus
  IC50: 1.15 nM

## O=C(O)C[C@H](O)C[C@H](O)CCn1c(-c2ccc(F)cc2)nc(C(=O)NCc2ccccc2)c1C1CC1 [Example 110, Sodium: (3R,5R)-7-[4-Benzylcarbamoyl-5-cyclopropyl-2-(4-fluoro-phenyl)-imidazol-1-yl]-3,5-dihydroxy-heptanoate]
[1]
  IC50: 1.38 nM
[2]
  IC50: 632 nM
[3]; Rattus norvegicus
  IC50: 0.218 nM

## CC(C)c1c(C(=O)NCc2ccccc2)nc(-c2ccc(F)cc2)n1CC[C@@H](O)C[C@@H](O)CC(=O)O [Example 4]
[1]
  IC50: 7.9 nM
[2]
  IC50: 3070 nM
[3]; Rattus norvegicus
  IC50: 0.42 nM

## O=C1C[C@H](O)C[C@@H](CCn2c(-c3ccc(F)cc3)nc(C(=O)NCc3ccccc3)c2C2CC2)O1 [Example 103, 5-Cyclopropyl-2-(4-fluoro-phenyl)-1-[2-((2R,4R)-4-hydroxy-6-oxo-tetrahydro-pyran-2-yl)-ethyl]-1H-imidazole-4-carboxylic acid benzylamide]
[1]
  IC50: 50.4 nM
[3]; cell assay, rat hepatocytes, 4 hrs pre-incubation, 4 hrs 14C acetic acid labeling, read-out: IC50
  IC50: 0.088 nM

## CC(C)c1c(S(=O)(=O)NCc2ccc(C(=O)[O-])cc2)c(-c2ccc(F)cc2)c(-c2ccc(F)cc2)n1CC[C@@H](O)C[C@@H](O)CC(=O)[O-].[Na+].[Na+] [Example 43P]
other
  melting point: > 250 °C

## CC(C)c1c(NC(=O)OCc2ccccc2)nc(-c2ccc(F)cc2)n1CC[C@@H](O)C[C@@H](O)CC(=O)[O-].[Na+] [Example 137, Sodium: (3R,5R)-7-[4-benzyloxycarbonylamino-2-(4-fluoro-phenyl)-5-isopropyl-imidazol-1-yl]-3,5-dihydroxy-heptanoate sodium salt]
other
  melting point: 86 to 90 °C

## COc1ccc(CNC(=O)c2nc(-c3ccc(F)cc3)n(CC[C@@H]3C[C@@H](O)CC(=O)O3)c2C2CC2)cc1 [Example 104, 5-Cyclopropyl-2-(4-fluoro-phenyl)-1-[2-((2R,4R)-4-hydroxy-6-oxo-tetrahydro-pyran-2-yl)-ethyl]-1H-imidazole-4-carboxylic acid 4-methoxybenzylamide]
[1]
  IC50: 75.8 nM

## COc1ccc(CNC(=O)c2nc(-c3ccc(F)cc3)n(CC[C@@H](O)C[C@@H](O)CC(=O)O)c2C2CC2)cc1 [Example 111]
[1]
  IC50: 1.17 nM
[2]
  IC50: 6400 nM
[3]; Rattus norvegicus
  IC50: 0.146 nM

## Cc1cc(CNC(=O)c2nc(-c3ccc(F)cc3)n(CC[C@@H](O)C[C@@H](O)CC(=O)O)c2C(C)C)no1 [Example 62]
[1]
  IC50: 7.2 nM
[2]
  IC50: 703 nM
[3]; Rattus norvegicus
  IC50: 0.58 nM
